Data: US20230255906A1, “Targeting Serpin B9 in Cancer” (The Brigham and Women`s Hospital, Inc., priority 2020, published 2023)

What was measured:
[1] = target: MBP (Escherichia coli, UniProt P0AEX9); assay: SPR negative control channel; format: binding
Experimental: FIG. 4B. Sensorgrams of compounds 3,4-dihydroxybenzoic acid (top), 3-oxo-1-indancarboxylic acid (middle), and the compound of Formula (III) (bottom) show the binding of 3,4-dihydroxybenzoic acid and the compound of Formula (III) to Sb9 (top), but not to MBP (bottom) by Surface Plasmon Resonance (SPR).
All assays were run at 25° C. on a BiOptix 404pi. An NTA biosensor chip was used in this study to pre-concentrate 3 μM MBP-Sb9 via an N-terminal His-tag. MBP-Sb9 was covalently immobilized with EDC/NHS in 20 mM HEPES pH 8.0, 150 mM NaCl, 0.05% Tween-20, 5 mM β-ME to 10,000 to 15,000 RUs. MBP was similarly immobilized on a separate channel as a negative control.

[2] = target: T1, MBP-Sb9 (Homo sapiens, UniProt P50453); assay: Saturation-Transfer Difference (STD) NMR assay; format: binding
T1 construct: made in house
T1 sequence (P50453 2-376): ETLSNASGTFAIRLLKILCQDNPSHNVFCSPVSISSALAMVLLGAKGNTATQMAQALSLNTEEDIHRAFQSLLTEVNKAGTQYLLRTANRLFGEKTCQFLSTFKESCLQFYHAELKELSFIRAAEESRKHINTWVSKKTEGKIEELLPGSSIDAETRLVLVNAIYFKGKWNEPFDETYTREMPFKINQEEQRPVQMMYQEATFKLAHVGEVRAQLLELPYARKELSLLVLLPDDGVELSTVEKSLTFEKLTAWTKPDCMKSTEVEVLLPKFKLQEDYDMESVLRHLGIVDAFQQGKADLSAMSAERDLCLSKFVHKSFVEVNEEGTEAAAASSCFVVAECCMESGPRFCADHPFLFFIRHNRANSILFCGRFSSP
From the text: The Saturation-Transfer Difference (STD) NMR assay was used to evaluate the binding of the compound of Formula (III) to Sb9. […] The saturation period was 3.0 seconds with irradiation at 0 ppm (on-resonance excitation) and −20 ppm (off-resonance excitation). The number of scans was 160 for the on and off-resonance spectra, respectively. Spectra were processed using Topspin software and apodized with exponential multiplication with 1.0 Hz line-broadening.
The Saturation-Transfer Difference (STD) NMR assay was used to evaluate the binding of the compounds of Formulas (I) and (II) to Sb9. […] The saturation period was 3.0 seconds with irradiation at 0.7 ppm (on-resonance excitation) and 20 ppm (off-resonance excitation). The number of scans was 800. The spectra were processed using Topspin software with 1.0 Hz line-broadening.
The Saturation-Transfer Difference (STD) NMR assay as described herein was used to evaluate the binding of the compound of Formula (III) to Sb9.

[3] = test system: LLC1 mouse lung tumors; assay: LLC1 lung tumor model in C57BL/6 mice; format: in vivo; conditions: 300 μg i.p. bid for 21 days
From the text: FIGS. 6P-6Q. […] Data are expressed as means±SEM. *P<0.05 (Student's t-test). Mean survival time (MST) is increased in mice treated with the compound of Formula (III) as compared to Control group (FIG. 6Q).
Furthermore, similar antitumor effects and increased MST using the compound of Formula (III) in two other in vivo tumor models were observed: Renca renal cell carcinoma and LLC1 lung cancer (FIGS. 6M-6Q). Thus, inhibition of Sb9 by the compound of Formula (III) has potent anti-tumor effects in a broad spectrum of tumors, including melanomas as well as breast, lung, and kidney tumors.

[4] = test system: LAMP1; assay: LAMP1 / lysosome fluorescence micrographs; format: cell-based
From the text: FIG. 4H. […] DAPI was used to counterstain the cell nuclei. Scale bar: 10 μm.
Lysosomes have a pH of 4 and are the most acidic compartment within cells. Therefore, it was hypothesized that lysosomes contain an environment that is conducive for the binding between the compound of Formula (III) and Sb9. Both Sb9 and GrB were co-localized in the lysosomes of B16 melanoma cells (FIG. 4F).

[5] = test system: MSC-WT cells; assay: ECM fiber production by mesenchymal stem cells; format: cell-based, mouse
Experimental: Isolation and harvest of murine MSCs from either C57BL/6-WT mice or Sb9 KO mice were performed according to the protocol as described previously (Zhu et al., 2010).
To investigate the effect of the compound of Formula (III) on the tumor stroma, MSC-WT cells were treated with the compound of Formula (III) for 48 hrs.

## O=C(O)c1ccc2ncoc2c1 [Formula (III), 1,3-benzoxazole-6-carboxylic acid]
[1]
  binding to MBP (negative control): not to MBP
[2]; 420 μM compound, 45 μM Sb9 protein, PBS pH 7.0, 25° C.
  binding to MBP-Sb9 by STD NMR: confirmed the binding activity
[2]; 450 μM compound, 45 μM Sb9, various pH values
  pH dependence of binding to MBP-Sb9 by STD NMR: enhanced significantly at lower pH
[3]
  Mean survival time (MST) vs Control: increased
[3]; C57BL/6-WT mice
  tumor growth vs control: significantly slower growth
[4]
  LAMP1 expression and lysosome areas: significantly increased the LAMP1 expressions
[5]; 48 hrs treatment
  production of fibronectin and collagen I by MSC-WT cells: reduced the production of fibronectin and collagen I
[5]; co-culture with B16-GFP cells
  expression of fibronectin and collagen I by MSC-WT cells co-cultured with B16 cells: decreased the expression of fibronectin and collagen I
